We go through two substances from patent US6946447B2, “MDM2-specific antisense oligonucleotides” (Hybridon, Inc., priority 1997, dated 2005).

The subject of data set [1] is p53. As to the kind of experiment: BP100-luciferase reporter in several representative cell lines. The class given is cell-based. The settings on record: stably transfected cell lines, 20 hr (FIG. 13). How it is done:
Cells stably transfected with the BP100-luciferase reporter were treated with antisense oligonucleotides at indicated concentrations for 20 hr. Luciferase activity/unit protein was determined and the magnitude of induction was shown compared to cells not treated with oligonucleotides. AS2M4: a 4 bp mismatch control of AS5-2. K: an unrelated oligonucleotide.
In order to determine whether the p53 protein that accumulates after inhibition of MDM2 is functionally active, a p53-responsive BP100-luciferase reporter plasmid was transfected into several representative cell lines. Stably transfected cells were then treated with AS5-2 or control oligonucleotides. […] The magnitude of p53 transcription activation is consistent with the fact that most of the p53 accumulation occurs in the nucleus, which has a low basal level of p53.
(In general: In a reporter assay the amount or activity of a reporter protein is the signal.)

Another data set has as its system DNA synthesis. As to the kind of experiment: DNA synthesis by BrdU incorporation normalized to viable cells. The class given is cell-based. The settings on record: cell lines that do not undergo significant apoptosis, 100 nM, 20 hr (FIG. 15). (Dividing cells build labelled thymidine or BrdU into new DNA.)
The test system of the next data set is MDM2 mRNA. As to the kind of experiment: Northern blot of MDM2 mRNA in JAR cells. The data set is classed as cell-based, human. To be noted: 200 nM, 18 h. How it is done: JAR cells were treated with 200 nM of antisense oligonucleotide AS5 (SEQ ID NO:28) with no oligonucleotide, with 200 nM of control oligonucleotide M4 (SEQ ID NO:5). After 18 hours, the treated cells were harvested and RNA was purified and quantitated according to standard methods. (see e.g., Current Protocols in Molecular Biology, John Wiley & Sons Inc. (1995)). Twenty μg of total RNA were run on a 1% agarose denaturing gel. MDM2 mRNA was detected by hybridization using an EcoRI-NcoI fragment specific for the human MDM2 cDNA between nucleotides 310-1633. The filter was then stripped and reprobed with a 1.2 kb fragment, which is a full length human GAPDH cDNA to normalize values on the basis of loading variations, according to standard methods.

For data set [2], the system named is p21/WAF1. The settings on record: optimal concentration 200 nM; cited from earlier work.
The test system of data set [3] is MDM2. To be noted: JAR and SJSA cells, 100-400 nM, Lipofectin; cited from earlier work.
Data set [4] concerns JAR cells. As to the kind of experiment: Induction of apoptosis / cell death in JAR cells. The class given is cell-based, human. The settings on record: 400 nM. Here is the method: JAR cells (ATCC) were grown in DMEM medium supplemented with 1% FBS according to standard cell culture techniques. Cells were then treated for 30 hours with growth medium containing 400 nM of either antisense oligonucleotide AS5 (SEQ ID NO:28) complementary to a portion of MDM2-encoding RNA or control oligonucleotide M4 (SEQ ID NO:5), and 7 μg/ml lipofectin (Gibco BRL Paisley, UK). Treated cells were then photographed using a phase contrast microscope.
JAR cells were treated for 24 hours as described in Example 6. Floating cells were harvested and chromosomal DNA was extracted according to standard techniques (Liu et al., Cell 86:147-157 (1996)). Purified DNA was then analyzed by agarose gel electrophoresis on a 2% agarose gel. Following electrophoresis the gel was stained with 0.5 μg/ml ethidium bromide.

Data set [5] relates to MDM2. The experiment in a line: MDM2 protein level by immunoprecipitation/Western blot in oligonucleotide-treated cells. The class given is cell-based, human. To be noted: JAR cells, 18 h, Lipofectin 7 μg/ml, Western blot (FIG. 2A). Background: In western blotting, separated proteins are transferred to a membrane and probed.
The subject of a further data set is p53-MDM2 complex. As to the kind of experiment: Co-immunoprecipitation of p53-MDM2 complex in JAR cells. The data set is classed as cell-based, human. From the text: Protein lysates from JAR cells treated with antisense oligonucleotides as described in Example 1 were immunoprecipitated with anti-p53 monoclonal antibody Pab421 (FIGS. 4A and 4B) (Harlow et al. J. Virol. 39:861-869 (1981)) or with polyclonal antibody 2A10 (panel C) according to the methods described in Example 1. The gel was then transferred onto an Immobilon P membrane (Millipore, Bedford, Mass.) to detect MDM2 co-precipitates.

Data set [6] relates to p53. As to the kind of experiment: Nuclear p53 level by immunofluorescence staining with Pab1801. The data set is classed as cell-based, human. The settings on record: MCF-7 cells, 200 nM, 20 hr.
Data set [7] relates to p21/WAF1. The experiment in a line: p21/WAF1 induction by Western blot in JAR cells. The class given is cell-based, human. To be noted: 200 nM, relative to control-treated cells. How it is done:
To assess the ability of the oligonucleotides of the invention to induce the expression of a p53-inducible gene, p21/WAF1 levels were examined in oligonucleotide-treated JAR cells. Total protein was purified from control oligonucleotide-treated cells and from antisense oligonucleotide-treated cells (200 nM oligonucleotide AS5) as described in Example 1. Equal amounts of purified total protein were immunoprecipitated and analyzed by Western blotting carried out for MDM2 detection using a polyclonal rabbit anti-human p21/WAF1 serum. Following hybridization, the blots were exposed to XAR film (Eastman Kodak, Rochester, N.Y.) and the autoradiograms are quantitated by phosphoroimaging.

Data set [8] concerns JAR-TK-luc and H1299-BP100-luc cells. The experiment in a line: Control luciferase reporters in JAR-TK-luc and H1299-BP100-luc cells. The data set is classed as cell-based, human. How it is done: JAR cells stably transfected with a luciferase reporter driven by the thymidine kinase gene promoter (JAR-TK-luc) and H1299 cells containing no p53 that had been stably transfected with BP100-luciferase (H1299-BP1000-luc) were also tested. […] Similar results were also observed using AS5 in osteosarcoma SJSA cells (data not shown).

Data set [9] deals with p53. The experiment in a line: p53-responsive BP100-luciferase reporter in JAR cells. The data set is classed as cell-based, human.
Data set [10] deals with tumor cell lines. As to the kind of experiment: Cell death / apoptosis in other cell lines. The data set is classed as cell-based, human. To be noted: H1299 cells (lack p53).
Data set [11] has as its system tumor cell lines. The settings on record: H1299 cells that lack p53; cited from earlier work.
The test system of data set [12] is JAR cells. The settings on record: cited from earlier work.

Read-outs that look alike come from different tables or passages of the source. Strand notation (5' to 3'): a small letter for the sugar, then the base; units joined by * are phosphorothioate-linked, units joined directly phosphodiester-linked; [ ] holds rarer units or linkages, { } end groups; capitals alone tell only the bases. d = 2'-deoxy (DNA)

Turning to “AS2M4: 4 bp mismatch control of AS5-2, 5′-TGACTCTTGTCCTTACTCAC-3′; SEQ ID NO: 26 (DNA dT*dG*dA*dC*dT*dC*dT*dT*dG*dT*dC*dC*dT*dT*dA*dC*dT*dC*dA*dC)”, the “induction of p53 transcription function” value in the data set with p53 [1] is recorded as “significantly reduced efficiency”. The “rate of DNA synthesis (BrdU incorporation)” value in the data set with DNA synthesis is recorded as “weaker”.
As to “AS5: anti-MDM2 antisense PS-oligo SEQ ID NO:28, 5′-GATCACTCCCACCTTCAAGG-3′ (DNA dG*dA*dT*dC*dA*dC*dT*dC*dC*dC*dA*dC*dC*dT*dT*dC*dA*dA*dG*dG)”, the “increase of MDM2 mRNA” value in the data set with MDM2 mRNA is listed as 2.5 fold. For the same substance, the “molecular weight of the MDM2 mRNA band” value in the data set on MDM2 mRNA is on record as “slight decrease in the molecular weight of the MDM2 mRNA band”. Moreover, the “induction of p21 expression” value in the data set on p21/WAF1 [2] is listed as “up to 6.6 fold”. In addition, the “decrease of MDM2 protein levels” value in the data set on MDM2 [3] is listed as 3-5 fold. Besides, the “chromosomal DNA cleavage in floating cells” value in the data set on JAR cells [4] (24 h, agarose gel) is listed as “nucleosomal-sized low molecular weight bands characteristic of apoptosis”. Further, the “cell death / apoptosis morphology” value with JAR cells [4] (30 h, Lipofectin) is “induced significant cell death”. For the same substance, the “inhibition of MDM2 expression” value in the data set with MDM2 [5] was 3-5 fold. In addition, in the data set with p53-MDM2 complex (JAR cells (FIG. 4A)), the “total p53 levels” value is recorded as “did not change”. Besides, the “amount of MDM2 co-precipitated with p53” value in the data set with p53-MDM2 complex (JAR cells (FIG. 4B)) was “reduced”. In addition, the “nuclear p53 staining” value with p53 [6] is given as “similar, but weaker”. Moreover, in the data set on p21/WAF1 [7], the “induction of p21/WAF1” value was “up to 6.6 fold”. Also, the “activation of reporter gene in control cells” value in data set [8] is recorded as “did not activate the reporter gene”. In addition, the “induction of p53 activity among the initial antisense oligonucleotides tested” value in the data set on p53 [9] is given as “most effective”. For the same substance, the “activation of p53-responsive reporter expression” value with p53 [9] (JAR BP100-luc, 200 nM, 24 h) is recorded as 7 fold. Also, in the data set with p53 [9] (JAR BP100-luc, 48 h, AS5 200 nM, CPT alone, AS5 alone or co-incubation), the “activation of the p53 reporter” value was found to be 17 fold. For the same substance, the apoptosis result with tumor cell lines [10] is on record as “did not cause visible apoptosis”; with tumor cell lines [11] it was “did not cause visible apoptosis”; in the data set on JAR cells [12] it was “significant increase in the levels of apoptosis”.
